Reference: ChEMBL document CHEMBL1201862, “PubChem BioAssay data set” (2004)
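In this assay, cells in 96-well plates receive the compound at five concentrations for 48 hours. Endpoints are linearly interpolated between the surrounding concentrations. GI50 is the concentration that inhibits growth by half.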 Active and inactive are the calls of the source. Rule as the data show it: active = GI50 up to about 1.1 µM and inactive = higher.

Assays:
Experiment in all cases: growth of human tumour cells (NCI), 48 h
[1] = system: SK-MEL-5
[2] = system: NCI-H522
[3] = system: IGROV-1
[4] = system: U-251
[5] = system: EKVX
[6] = system: SNB-75
[7] = system: COLO 205
[8] = system: OVCAR-3
[9] = system: SF-539
[10] = system: UACC-257
[11] = system: NCI-H226
[12] = system: M14
[13] = system: A549
[14] = system: SK-OV-3
[15] = system: SK-MEL-2
[16] = system: HCT-116
[17] = system: SK-MEL-28
[18] = system: RXF 393
[19] = system: LOX IMVI
[20] = system: SW-620

Structure (SMILES)	GI50 [1]	GI50 [2]	GI50 [3]	GI50 [4]	GI50 [5]	GI50 [6]	GI50 [7]	GI50 [8]	GI50 [9]	GI50 [10]	GI50 [11]	GI50 [12]	GI50 [13]	GI50 [14]	GI50 [15]	GI50 [16]	GI50 [17]	GI50 [18]	GI50 [19]	GI50 [20]
CC12CC3(C)CC(C)(C1)CC(N=[N+]=[N-])(C2)C3	> 100 µM (inactive)	> 100 µM (inactive)	> 100 µM (inactive)	> 100 µM (inactive)	> 100 µM (inactive)	> 100 µM (inactive)	> 100 µM (inactive)	> 100 µM (inactive)	> 100 µM (inactive)	> 100 µM (inactive)	> 100 µM (inactive)	> 100 µM (inactive)	> 100 µM (inactive)	> 100 µM (inactive)	> 100 µM (inactive)	> 100 µM (inactive)	> 100 µM (inactive)	> 100 µM (inactive)	> 100 µM (inactive)	> 100 µM (inactive)
S=c1sc2cscc2s1	27.9 µM (inactive)	19.3 µM (inactive)	32.2 µM (inactive)	53.2 µM (inactive)	19.5 µM (inactive)	16.7 µM (inactive)	17.7 µM (inactive)	19.5 µM (inactive)	23 µM (inactive)	22.3 µM (inactive)	15.5 µM (inactive)	19.1 µM (inactive)	19.5 µM (inactive)	27.5 µM (inactive)	38 µM (inactive)	19.5 µM (inactive)	21.9 µM (inactive)	35.2 µM (inactive)	39.8 µM (inactive)	20.7 µM (inactive)
CCN(CC)CCNCc1cc(Cl)cc2c1OCOC2	> 10 µM (inactive)	> 10 µM (inactive)	> 10 µM (inactive)	> 10 µM (inactive)	> 10 µM (inactive)	> 10 µM (inactive)	> 10 µM (inactive)	> 10 µM (inactive)	> 10 µM (inactive)		> 10 µM (inactive)	> 10 µM (inactive)	> 10 µM (inactive)	> 10 µM (inactive)	> 10 µM (inactive)	> 10 µM (inactive)	> 10 µM (inactive)	> 10 µM (inactive)	> 10 µM (inactive)	> 10 µM (inactive)
S=c1nc(Nc2ccc(Br)cc2)c2c3c(sc2[nH]1)CN(N1CCc2c(sc4[nH]c(=S)nc(Nc5ccc(Br)cc5)c24)C1)CC3	12 µM (inactive)	12.8 µM (inactive)	26.2 µM (inactive)	9.42 µM (inactive)	35.2 µM (inactive)	> 50 µM (inactive)	23.6 µM (inactive)	25.1 µM (inactive)	29.3 µM (inactive)	28.6 µM (inactive)	20.8 µM (inactive)	8.36 µM (inactive)	23 µM (inactive)	> 50 µM (inactive)	14.9 µM (inactive)	12.3 µM (inactive)	11.6 µM (inactive)	10.2 µM (inactive)	8.67 µM (inactive)	16.4 µM (inactive)
O=C1C(c2ccc(C3=[N+]([O-])c4cc([N+](=O)[O-])ccc4C3=O)cc2)=[N+]([O-])c2cc([N+](=O)[O-])ccc21	> 10 µM (inactive)	> 10 µM (inactive)	> 10 µM (inactive)	> 10 µM (inactive)	> 10 µM (inactive)	36.2 µM (inactive)	> 10 µM (inactive)	> 10 µM (inactive)	> 10 µM (inactive)	> 10 µM (inactive)	> 10 µM (inactive)	> 10 µM (inactive)	> 10 µM (inactive)	> 10 µM (inactive)	> 10 µM (inactive)	> 10 µM (inactive)	> 10 µM (inactive)	> 10 µM (inactive)	> 10 µM (inactive)	> 10 µM (inactive)
O=C(Nc1nc2ncn(CCNCc3ccccc3)c2c(=O)[nH]1)c1ccccc1	> 100 µM (inactive)	> 100 µM (inactive)	> 100 µM (inactive)	> 100 µM (inactive)	> 100 µM (inactive)	90.2 µM (inactive)	> 100 µM (inactive)	> 100 µM (inactive)	> 100 µM (inactive)	> 100 µM (inactive)	> 100 µM (inactive)	> 100 µM (inactive)	> 100 µM (inactive)	> 100 µM (inactive)	> 100 µM (inactive)	> 100 µM (inactive)	> 100 µM (inactive)	91 µM (inactive)	> 100 µM (inactive)	> 100 µM (inactive)
COc1ccc(C2C(N)=NCC2c2ccccn2)cc1 (centres undefined)	> 100 µM (inactive)	> 100 µM (inactive)	> 100 µM (inactive)	> 100 µM (inactive)	> 100 µM (inactive)	> 100 µM (inactive)	> 100 µM (inactive)	> 100 µM (inactive)	> 100 µM (inactive)	> 100 µM (inactive)	> 100 µM (inactive)	> 100 µM (inactive)	> 100 µM (inactive)	> 100 µM (inactive)	> 100 µM (inactive)	> 100 µM (inactive)	> 100 µM (inactive)	> 100 µM (inactive)	> 100 µM (inactive)	> 100 µM (inactive)
Cc1cc(C)c2c(n1)S(=O)(=O)N(CCCN1CCN(c3cccc(C(F)(F)F)c3)CC1)C(C(=O)c1ccccc1)=C2O	2.93 µM (inactive)	4 µM (inactive)	5.66 µM (inactive)	5.4 µM (inactive)	4 µM (inactive)	3.48 µM (inactive)	3.31 µM (inactive)	4.18 µM (inactive)	10.1 µM (inactive)	5.66 µM (inactive)	1.03 µM (active)	7.36 µM (inactive)	4.55 µM (inactive)	20 µM (inactive)	17.3 µM (inactive)	4.38 µM (inactive)	9.64 µM (inactive)	5.73 µM (inactive)	3.03 µM (inactive)	4.13 µM (inactive)
COc1ccc(C2=C(Cl)c3cc(OC)c(OC)cc3C2Cl)cc1 (centres undefined)	13.7 µM (inactive)	12.5 µM (inactive)	17.4 µM (inactive)	13.7 µM (inactive)	16.9 µM (inactive)	0.499 µM (active)	17.5 µM (inactive)	16.8 µM (inactive)	15.3 µM (inactive)	17.1 µM (inactive)	21.3 µM (inactive)	17.2 µM (inactive)	15.4 µM (inactive)	13.6 µM (inactive)	12.1 µM (inactive)	14.2 µM (inactive)	16 µM (inactive)	14.5 µM (inactive)	12.2 µM (inactive)	15.3 µM (inactive)
CC1=NN(C(=O)c2ccc(Cl)cc2)C(=O)C1/N=N/c1ccc(S(=O)(=O)Nc2ncccn2)cc1 (centres undefined)	> 100 µM (inactive)	> 100 µM (inactive)	> 100 µM (inactive)	> 100 µM (inactive)	> 100 µM (inactive)	> 100 µM (inactive)	> 100 µM (inactive)	> 100 µM (inactive)	> 100 µM (inactive)	> 100 µM (inactive)	> 100 µM (inactive)	> 100 µM (inactive)	> 100 µM (inactive)	> 100 µM (inactive)	> 100 µM (inactive)	> 100 µM (inactive)	> 100 µM (inactive)	> 100 µM (inactive)	> 100 µM (inactive)	> 100 µM (inactive)
